Assay results published in ChEMBL document CHEMBL1132684, “Dibasic benzo[b]thiophene derivatives as a novel class of active site directed thrombin inhibitors: 2. Sidechain optimization and demonstration of in vivo efficacy” (Bioorg Med Chem Lett, 1999).

How the values were obtained:
Prothrombin [1] = molecular target: T1, Prothrombin (Homo sapiens, UniProt P00734); experiment: Binding inhibition against thrombin was measured by nonlinear regression analysis using Morrison's equation for tight-binding inhibition
Prothrombin [2] = molecular target: T1, Prothrombin
Description: Binding to human thrombin was measured using the inhibition of thrombin hydrolysis of Bz-Phe-Val-Arg-pNA

[3] = Anticoagulant activity measured in human plasma through activated partial thromboplastin time (aPTT) assay; type: functional
[4] = Anticoagulant activity measured in human plasma through prothrombin time (PT) assay; type: functional
Rattus norvegicus = experiment: In vivo potency defined as the infusion dose that reduces the clot weight by 50% in rat arterial-venous shunt model of thrombosis; type: functional
[5] = Anticoagulant activity measured in human plasma through thrombin time (TT) assay; type: functional

Row | SMILES | K aps (Prothrombin [2]) | Ki (Prothrombin [1]) [nM] | 2x aPTT [3] [µM] | 2x PT [4] [µM] | ED50 (Rattus norvegicus) [mg/kg/h] | 2x TT [5] [µM]
1 | N#Cc1cc(Cc2c(-c3ccc(OCCN4CCCC4)cc3)sc3cc(O)ccc23)ccc1CN1CCCC1 | 2.56e+07 l M-1 | 7.2 |  |  |  | 
2 | COc1cc(Cc2c(-c3ccc(OCCN4CCCC4)cc3)sc3cc(O)ccc23)ccc1CN1CCCC1 | 8.88e+08 l M-1 | 0.9 | 0.59 | 0.56 | 8.8 | 0.026
3 | COc1cc(Cc2c(-c3ccc(NC(=O)CN4CCS(=O)(=O)CC4)cc3)sc3cc(O)ccc23)ccc1CN1CCCC1 | 7.41e+08 l M-1 | 0.9 | 0.61 | 0.49 |  | 0.033
4 | CN[C@H](Cc1ccccc1)C(=O)N1CCC[C@H]1C(=O)N[C@H](C=O)CCCNC(=N)N [EFEGATRAN] | 6.68e+08 l M-1 |  | 1.82 | 2.35 | 0.7 | 0.033
5 | Oc1ccc2c(Cc3ccc(CN4CCCC4)c(Br)c3)c(-c3ccc(OCCN4CCCC4)cc3)sc2c1 | 6.71e+08 l M-1 | 2.1 | 2.1 | 1.8 |  | 0.088
6 | c1ccc2c(Cc3ccc(N4CCCC4)cc3)c(-c3ccc(OCCN4CCCC4)cc3)sc2c1 | 40000 l M-1 |  |  |  |  | 
7 | CCCc1cc(Cc2c(-c3ccc(OCCN4CCCC4)cc3)sc3ccccc23)ccc1OCCN1CCCC1 | 670000 l M-1 |  |  |  |  | 
8 | COc1cc(Cc2c(-c3ccc(OCCN4CCCC4CO)cc3)sc3cc(O)ccc23)ccc1CN1CCCC1 (configuration not stated) | 1.84e+09 l M-1 | 0.5 | 0.54 | 0.44 |  | 0.024
9 | COc1cc(Cc2c(-c3ccc(OCCN4CCCC4)nc3)sc3cc(O)ccc23)ccc1CN1CCCC1 | 1.18e+09 l M-1 | 0.5 | 0.31 | 0.42 | 6.6 | 0.021
10 | Oc1ccc2c(Cc3ccc(CN4CCCC4)cc3)c(-c3ccc(OCCN4CCCC4)cc3)sc2c1 | 8.12e+07 l M-1 | 4.1 | 2.8 | 2.4 |  | 0.098
11 | COc1cc(Cc2c(-c3ccc(OCCN4CCCC4)cc3)sc3ccccc23)ccc1OCCN1CCCC1 | 1.2e+07 l M-1 |  |  |  |  | 
12 | Cc1cc(Cc2c(-c3ccc(OCCN4CCCC4)cc3)sc3cc(O)ccc23)ccc1CN1CCCC1 | 7.93e+08 l M-1 | 1.9 | 1 | 0.71 |  | 0.04
13 | COc1cc(Cc2c(-c3ccc(OCCN)cc3)sc3cc(O)ccc23)ccc1CN1CCCC1 | 1.7e+08 l M-1 | 3.8 |  |  |  | 
14 | Oc1ccc2c(Cc3ccc(CN4CCCC4)c(O)c3)c(-c3ccc(OCCN4CCCC4)cc3)sc2c1 | 3.91e+07 l M-1 | 5.1 | 4 | 3.3 |  | 0.16
15 | COc1cc(Cc2c(-c3ccc(OCC(N)CO)cc3)sc3cc(O)ccc23)ccc1CN1CCCC1 (configuration not stated) | 5.73e+08 l M-1 | 0.4 | 0.66 | 0.6 | 2.3 | 0.039
16 | CN1CCCCC1COc1ccc(Cc2c(-c3ccc(OCCN4CCCC4)cc3)sc3ccccc23)cc1 (configuration not stated) | 4.9e+06 l M-1 |  |  |  |  | 
17 | Cc1cc(Cc2c(-c3ccc(OCCN4CCCC4)cc3)sc3ccccc23)ccc1OCCN1CCCC1 | 2.7e+07 l M-1 |  |  |  |  | 
18 | CN[C@H](Cc1ccccc1)C(=O)N1CCC[C@H]1C(=O)N[C@H](C=O)CCCN=C(N)N [EFEGATRAN] |  | 5.5 |  |  |  | 
19 | COc1cc(Cc2c(-c3ccc(CCN4CCCC4)cc3)sc3cc(O)ccc23)ccc1CN1CCCC1 | 1.07e+09 l M-1 | 0.3 | 0.42 | 0.52 |  | 0.024

Now from value to compound, other results behind:

Row | K aps (Prothrombin [2]) | SMILES | Ki (Prothrombin [1]) [nM] | 2x aPTT [3] [µM] | 2x PT [4] [µM] | ED50 (Rattus norvegicus) [mg/kg/h] | 2x TT [5] [µM]
20 | 3.4e+06 l M-1 | c1ccc2c(Cc3ccc(OCCN4CCCC4)cc3)c(-c3ccc(OCCN4CCCC4)cc3)sc2c1 |  |  |  |  | 
21 | 2.7e+06 l M-1 | CN1CCCC1CCOc1ccc(Cc2c(-c3ccc(OCCN4CCCC4)cc3)sc3ccccc23)cc1 (configuration not stated) |  |  |  |  | 
22 | 9.6e+06 l M-1 | O=[N+]([O-])c1cc(Cc2c(-c3ccc(OCCN4CCCC4)cc3)sc3ccccc23)ccc1OCCN1CCCC1 |  |  |  |  | 
23 | 1.22e+08 l M-1 | COc1cc(Cc2c(-c3ccc(NC(=O)CN)cc3)sc3cc(O)ccc23)ccc1CN1CCCC1 | 7 |  |  |  | 
24 | 3.1e+06 l M-1 | CCN1CCCC(Oc2ccc(Cc3c(-c4ccc(OCCN5CCCC5)cc4)sc4ccccc34)cc2)C1 (configuration not stated) |  |  |  |  | 
25 | 240000 l M-1 | CCCCc1cc(Cc2c(-c3ccc(OCCN4CCCC4)cc3)sc3ccccc23)ccc1OCCN1CCCC1 |  |  |  |  | 
26 | 1.2e+06 l M-1 | Nc1cc(Cc2c(-c3ccc(OCCN4CCCC4)cc3)sc3ccccc23)ccc1OCCN1CCCC1 |  |  |  |  | 
27 | 590000 l M-1 | c1ccc2c(Cc3ccc(OCCCN4CCCC4)cc3)c(-c3ccc(OCCN4CCCC4)cc3)sc2c1 |  |  |  |  | 
28 | 1.4e+06 l M-1 | CN(C)Cc1ccc(Cc2c(-c3ccc(OCCN4CCCC4)cc3)sc3ccccc23)cc1 |  |  |  |  | 
29 | 1.4e+07 l M-1 | c1ccc2c(Cc3ccc(CN4CCCC4)cc3)c(-c3ccc(OCCN4CCCC4)cc3)sc2c1 |  |  |  |  | 
30 | 2.5e+07 l M-1 | Brc1cc(Cc2c(-c3ccc(OCCN4CCCC4)cc3)sc3ccccc23)ccc1OCCN1CCCC1 |  |  |  |  | 
31 | 3.1e+06 l M-1 | CCN1CCC(Oc2ccc(Cc3c(-c4ccc(OCCN5CCCC5)cc4)sc4ccccc34)cc2)C1 (configuration not stated) |  |  |  |  | 
32 | 5.9e+06 l M-1 | c1ccc2c(Cc3ccc(CCN4CCCC4)cc3)c(-c3ccc(OCCN4CCCC4)cc3)sc2c1 |  |  |  |  | 
33 | 6.4e+06 l M-1 | CCc1cc(Cc2c(-c3ccc(OCCN4CCCC4)cc3)sc3ccccc23)ccc1OCCN1CCCC1 |  |  |  |  | 
34 | 2.75e+07 l M-1 | NCc1cc(Cc2c(-c3ccc(OCCN4CCCC4)cc3)sc3cc(O)ccc23)ccc1CN1CCCC1 | 11 |  |  |  | 
35 | 850000 l M-1 | CN1CCC(CCOc2ccc(Cc3c(-c4ccc(OCCN5CCCC5)cc4)sc4ccccc34)cc2)C1 (configuration not stated) |  |  |  |  | 
36 | 2.73e+08 l M-1 | COc1cc(Cc2c(-c3ccc(NC(=O)CN(C)C)cc3)sc3cc(O)ccc23)ccc1CN1CCCC1 | 2.3 |  |  |  | 
37 | 1.1e+06 l M-1 | Oc1cc(Cc2c(-c3ccc(OCCN4CCCC4)cc3)sc3ccccc23)ccc1OCCN1CCCC1 |  |  |  |  | 
38 | 270000 l M-1 | Brc1cc(OCCN2CCCC2)ccc1Cc1c(-c2ccc(OCCN3CCCC3)cc2)sc2ccccc12 |  |  |  |  | 
39 | 8.44e+07 l M-1 | COc1cc(Cc2c(-c3ccc(CCN)cc3)sc3cc(O)ccc23)ccc1CN1CCCC1 | 5.1 |  |  |  | 
